IC50 and inhibition data for six compounds are collected here from ChEMBL document CHEMBL6114988, “Design, synthesis and biological evaluation of dual CDK9/PARP inhibitors for the treatment of cancer” (Eur J Med Chem, 2025).

In assay [1] the target is Cyclin-dependent kinase 9 (Homo sapiens, UniProt P50750).
Description: Inhibition of CDK9 (unknown origin) using lipid substrate incubated for 40 mins in presence of ATP by kinase-Glo plus luminescence assay
Assay [2] concerns the target Poly [ADP-ribose] polymerase 1 (Homo sapiens, UniProt P09874). Put plainly: Inhibition of PARP1 (unknown origin) incubated for 1 hr by ELISA. Background: An ELISA detects its analyte on a solid surface through an enzyme-linked reagent.
The subject of another assay is HeLa. Description: cells. As to conditions: Homo sapiens, 48 h.
For the next assay, the system named is HCT-116. Description: cells. As to conditions: Homo sapiens, HCT-116, 48 h.
A further assay has as its system MDA-MB-231. Description: cells. The note with it: Homo sapiens, MDA-MB-231, 48 h.
A further assay concerns MCF7. Put plainly: cells. As to conditions: Homo sapiens, MCF7, 48 h.
Assay [3] addresses CDK9/cyclin T1 (Homo sapiens) (UniProt O60563+P50750). As to conditions: dose 200.0 nM, time 70.0 min.
A further assay deals with MOLM-13. Put plainly: Antiproliferative activity against human MOLM-13 cells assessed as inhibition of cell proliferation incubated for 48 hrs by CCK-8 assay. In kind it is functional, cell-based. As to conditions: MOLM-13, 48 h.
For the next assay, the system named is MV4-11. Description: Antiproliferative activity against human MV4-11 cells assessed as inhibition of cell proliferation incubated for 48 hrs by CCK-8 assay. It is filed as functional, cell-based. The note with it: MV4-11, 48 h. (In general: Formazan colour is commonly taken as a measure of viable cells.)

Chain of Cyclin-dependent kinase 9 (P50750 whole entry): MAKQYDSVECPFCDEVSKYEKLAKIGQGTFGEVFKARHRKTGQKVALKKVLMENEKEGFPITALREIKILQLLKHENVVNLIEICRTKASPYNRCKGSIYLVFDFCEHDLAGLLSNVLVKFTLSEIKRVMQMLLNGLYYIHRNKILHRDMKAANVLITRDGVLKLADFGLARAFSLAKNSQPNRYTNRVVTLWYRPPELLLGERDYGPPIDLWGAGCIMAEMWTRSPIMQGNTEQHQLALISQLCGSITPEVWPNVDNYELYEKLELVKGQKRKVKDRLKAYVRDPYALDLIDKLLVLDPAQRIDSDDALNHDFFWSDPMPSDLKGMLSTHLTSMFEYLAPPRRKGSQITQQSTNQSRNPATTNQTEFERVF
Chain of Poly [ADP-ribose] polymerase 1 (P09874 whole entry): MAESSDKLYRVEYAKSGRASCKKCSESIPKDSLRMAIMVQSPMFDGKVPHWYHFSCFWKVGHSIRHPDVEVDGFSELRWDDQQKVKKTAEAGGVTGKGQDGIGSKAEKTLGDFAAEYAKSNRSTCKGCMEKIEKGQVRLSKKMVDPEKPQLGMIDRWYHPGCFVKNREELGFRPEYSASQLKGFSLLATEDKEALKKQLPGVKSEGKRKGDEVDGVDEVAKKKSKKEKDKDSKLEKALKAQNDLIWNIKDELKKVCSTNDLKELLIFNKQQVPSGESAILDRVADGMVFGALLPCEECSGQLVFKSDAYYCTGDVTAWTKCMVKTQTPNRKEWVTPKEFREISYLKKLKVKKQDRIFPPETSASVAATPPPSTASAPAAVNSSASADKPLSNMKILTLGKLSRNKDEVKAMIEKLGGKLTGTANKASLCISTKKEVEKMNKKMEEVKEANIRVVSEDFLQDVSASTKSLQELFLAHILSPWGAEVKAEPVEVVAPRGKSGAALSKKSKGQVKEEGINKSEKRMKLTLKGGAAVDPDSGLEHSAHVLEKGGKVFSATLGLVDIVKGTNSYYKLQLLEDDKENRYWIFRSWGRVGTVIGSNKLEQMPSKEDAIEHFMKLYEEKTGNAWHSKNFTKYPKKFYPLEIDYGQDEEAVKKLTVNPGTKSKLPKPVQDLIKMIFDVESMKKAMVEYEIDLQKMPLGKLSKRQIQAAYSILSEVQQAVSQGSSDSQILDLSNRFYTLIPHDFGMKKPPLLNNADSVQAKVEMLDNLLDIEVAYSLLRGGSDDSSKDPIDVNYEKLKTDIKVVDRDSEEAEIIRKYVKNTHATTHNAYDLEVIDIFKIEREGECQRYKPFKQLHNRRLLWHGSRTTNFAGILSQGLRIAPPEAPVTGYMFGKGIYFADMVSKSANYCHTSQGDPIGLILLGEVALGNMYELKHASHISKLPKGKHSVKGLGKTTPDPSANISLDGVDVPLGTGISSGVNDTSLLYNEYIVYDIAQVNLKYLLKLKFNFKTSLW
Description for HCT-116: Antiproliferative activity against human HCT-116 cells assessed as inhibition of cell proliferation incubated for 48 hrs by CCK-8 assay
Description for HeLa: Antiproliferative activity against human HeLa cells assessed as inhibition of cell proliferation incubated for 48 hrs by CCK-8 assay
Description for MCF7: Antiproliferative activity against human MCF7 cells assessed as inhibition of cell proliferation incubated for 48 hrs by CCK-8 assay
Description for MDA-MB-231: Antiproliferative activity against human MDA-MB-231 cells assessed as inhibition of cell proliferation incubated for 48 hrs by CCK-8 assay

`COc1cc(F)ccc1-c1nc(Nc2cc(CN3CCN(C(=O)c4cc(Cc5n[nH]c(=O)c6ccccc56)ccc4F)CC3)ccn2)ncc1F`: the results for the concentration for half-maximal inhibition (IC50) in assay [1] and in [2] were 2350 nM and 91 nM, respectively.

For `COc1ccc(F)cc1-c1cc(Nc2cc(CN3CCN(C(=O)c4cc(Cc5n[nH]c(=O)c6ccccc56)ccc4F)CC3)ccn2)ncc1F`, the 50% inhibitory concentration (IC50) amounted to 31 nM in assay [1] and 48 nM in assay [2].

As for `COc1ccc(OC)c(-c2cc(Nc3cc(CN4CCN(C(=O)c5cc(Cc6n[nH]c(=O)c7ccccc67)ccc5F)CC4)ccn3)ncn2)c1`, the IC50 in assay [1] was determined as 315 nM; in assay [2], 14 nM.

For the compound `COc1cc(F)ccc1-c1cc(Nc2cc(CN3CCN(C(=O)c4cc(Cc5n[nH]c(=O)c6ccccc56)ccc4F)CC3)ccn2)ncc1F`, the IC50 in assay [1] was 17 nM; in [2], 43 nM.

Turning to `COc1ccc(-c2cc(Nc3cc(CN4CCN(C(=O)c5cc(Cc6n[nH]c(=O)c7ccccc67)ccc5F)CC4)ccn3)ncn2)c(OC)c1`, the IC50 in the assay on HeLa is 1210 nM; in the assay with HCT-116, 2520 nM; with MDA-MB-231 it was above 50000 nM; in the assay with MCF7, above 50000 nM; in assay [1], 29 nM; in [2], 10 nM. The results for the IC50 in the assay with MOLM-13 and with MV4-11 were 4050 nM and 1420 nM, respectively. This compound yielded an inhibition in assay [3] of 73.9%.

For the compound `O=C(c1cc(Cc2n[nH]c(=O)c3ccccc23)ccc1F)N1CCN(Cc2ccnc(Nc3cc(-c4ccc(F)c5ccoc45)ncn3)c2)CC1`, the half-inhibitory concentration (IC50) in [1] amounted to 118 nM; in [2], 107 nM.

As usually defined, the IC50 is the concentration that gives 50% inhibition. By inhibition is commonly meant the percentage by which the read-out fell short of the control. Read a low inhibition as little suppression.
